In PubChem BioAssay AID2060513 (Molecular Pharmacology Branch, DTP, NCI, 2025) one finds IC50 and viability, T/C data, which are given here for 6 molecules.

Structures are written as SMILES. Where “and” joins values, the source holds several entries; their conditions need not be identical. Identical values can stand only once.

For the experiment, the system named is 299254-011-R-J1-PDC complex spheroids viability. In words: Anticancer human tumor 299254-011-R-J1-PDC patient-derived melanoma cell line growth inhibition [GQUAD]. As to conditions: for viability, T/C: stronger effect = lower value. The text has this:
DNA G-quadruplex Stabilizer Agents in Combinations in Complex Spheroids
A high-throughput screen of multi-cell type tumor spheroids was designed to identify active combinations of DNA G-quadruplex stabilizer agents and targeted small molecules. Complex spheroids include a stromal component modeled by human endothelial cells (HUVEC) and fibroblasts modeled by human mesenchymal stem cells (MSCs). The concentration ranges selected for each drug and investigational agent were based upon clinically achievable concentrations if the clinical Cmax of the agent was known.
Compounds. The drugs and investigational agents: pidnarulex (CX-5461; NSC782164), APTO-253 (NSC789042), BRACO-19 (NSC847499), peposertib (NSC802822), ceralasertib (NSC780249), elimusertib (NSC800525), camonsertib (NSC841442), AZD-1390 (NSC803789), olaparib (NSC753686), talazoparib (NSC767125), ART-558 (NSC835418), sotorasib (NSC818433), MRTX-1133 (NSC836407), SN-38 (NSC673596), topotecan (NSC609699), etoposide (NSC141540), doxorubicin (NSC123127), gemcitabine (NSC613327), 5-fluorouracil (NSC19893), paclitaxel (NSC125973), vemurafenib (NSC761431), panobinostat (NSC761190), R-306465 (JNJ-16241199; NSC773264), adavosertib (NSC754352), TP-3654 (NSC805149), carboplatin (NSC241240), KSQ-4279 (NSC840948), and staurosporine (NSC755774) were obtained from the National Cancer Institute (NCI) Developmental Therapeutics Program Chemical Repository (34). The FDA-approved anticancer drug set is available from the NCI Developmental Therapeutics Program. […] The stock solutions were prepared in dimethyl sulfoxide (DMSO, Sigma-Aldrich, St. Louis, MO, cat. D2650) at 800-fold the tested concentration and stored at -70 degrees C prior to their use. All drugs and investigational agents were tested over a range starting from a high concentration at or near the clinical Cmax and decreasing in half-log increments. If the clinical Cmax for an agent had not been determined, the highest concentration tested was 10 microM.
2.3 Cell Culture. All cells were maintained in an incubator at 37 degrees C and 5% CO2 with 95% humidity. The PDC lines were cultured according to standard operating procedures established by the NCI PDMR. All PDCs were thawed and cultured in Matrigel-coated flasks prepared with a working solution of 1X Ham's F-12 nutrient mix, without supplementation (Invitrogen, cat. 11765054), 100 U/mL penicillin-streptomycin (Invitrogen, cat. 15140122), and 2.5% Matrigel (Corning Inc., cat. 354248) for the first three passages. The 857933-349-R-J2-PDC line was cultured in 6C/Colon 1B media, which includes advanced DMEM/F-12 (Thermo Fisher Scientific, cat. 12634028), 10 mM HEPES (Thermo Fisher Scientific, cat. 15630080), 1X GlutaMAX supplement (Thermo Fisher Scientific, cat. 35050061), 0.1 mg/mL primocin (InvivoGen, cat. ant-pm-2), 10% defined fetal bovine serum, heat inactivated (HyClone Laboratories Inc., cat. SH30070.03HI), 50% L-WRN conditioned media (ATCC, cat. CRL-3276), 1.25 mM N-Acetyl-L-cysteine (Sigma-Aldrich, cat. A9165), 10 mM nicotinamide (Sigma-Aldrich, cat. N0636), 1X B-27 supplement (Thermo Fisher Scientific, cat. 17504044), 1X N-2 supplement (Thermo Fisher Scientific, cat. 17502048), 10 microM Y-27632 dihydrochloride (Tocris Bioscience, cat. 1254), and 50 ng/mL human EGF recombinant protein (Thermo Fisher Scientific, cat. PHG0311). The 485176-168-R4-J1-PDC line was cultured in Panc media, which includes all 6C/Colon 1B media components plus 100 ng/mL human FGF-10 (Thermo Fisher Scientific, cat. 100-26), 500 nM SB-431542 (Selleckchem, cat. S1067), and gastrin (Tocris, cat. 3006).
[…]

[1] abbreviates: curve of first compound, second compound 0.0316 µM.
[2] abbreviates: curve of first compound, second compound 0.1 µM.
Setting [3] is: curve of first compound, second compound 0.316 µM.
Setting [4] is: curve of first compound, second compound 1 µM.
Where [5] appears, read: curve of first compound, second compound 3.16 µM.
The mark [6] stands for this setting: curve of first compound, second compound 10 µM.
Setting [7] is: second compound 0.0316 µM, first compound 0.0316 µM.
Where [8] appears, read: second compound 0.0316 µM, first compound 0.1 µM.
Setting [9] is: second compound 0.0316 µM, first compound 0.316 µM.
The mark [10] stands for this setting: second compound 0.0316 µM, first compound 1 µM.
Setting [11] is: second compound 0.0316 µM, first compound 3.16 µM.
The mark [12] stands for this setting: second compound 0.0316 µM, first compound 10 µM.
Setting [13] is: second compound 0.1 µM, first compound 0.0316 µM.
[14] abbreviates: second compound 0.1 µM, first compound 0.1 µM.
[15] abbreviates: second compound 0.1 µM, first compound 0.316 µM.
[16] abbreviates: second compound 0.1 µM, first compound 1 µM.
The mark [17] stands for this setting: second compound 0.1 µM, first compound 3.16 µM.
Where [18] appears, read: second compound 0.1 µM, first compound 10 µM.
Setting [19] is: second compound 0.316 µM, first compound 0.0316 µM.
Setting [20] is: second compound 0.316 µM, first compound 0.1 µM.
The mark [21] stands for this setting: second compound 0.316 µM, first compound 0.316 µM.
Where [22] appears, read: second compound 0.316 µM, first compound 1 µM.
Setting [23] is: second compound 0.316 µM, first compound 3.16 µM.
[24] abbreviates: second compound 0.316 µM, first compound 10 µM.
Where [25] appears, read: second compound 1 µM, first compound 0.0316 µM.
[26] abbreviates: second compound 1 µM, first compound 0.1 µM.
Setting [27] is: second compound 1 µM, first compound 0.316 µM.
[28] abbreviates: second compound 1 µM, first compound 1 µM.
The mark [29] stands for this setting: second compound 1 µM, first compound 3.16 µM.
[30] abbreviates: second compound 1 µM, first compound 10 µM.
Where [31] appears, read: second compound 3.16 µM, first compound 0.0316 µM.
The mark [32] stands for this setting: second compound 3.16 µM, first compound 0.1 µM.
Where [33] appears, read: second compound 3.16 µM, first compound 0.316 µM.
[34] abbreviates: second compound 3.16 µM, first compound 1 µM.
Where [35] appears, read: second compound 3.16 µM, first compound 3.16 µM.
[36] abbreviates: second compound 3.16 µM, first compound 10 µM.
The mark [37] stands for this setting: second compound 10 µM, first compound 0.0316 µM.
Setting [38] is: second compound 10 µM, first compound 0.1 µM.
Where [39] appears, read: second compound 10 µM, first compound 0.316 µM.
The mark [40] stands for this setting: second compound 10 µM, first compound 1 µM.
Where [41] appears, read: second compound 10 µM, first compound 3.16 µM.
The mark [42] stands for this setting: second compound 10 µM, first compound 10 µM.
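Further: spheroids exposed to the agents for seven days before readout.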
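Wherever viability, T/C is given: percent viability relative to DMSO vehicle control wells = 100%.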

One may read the IC50 as the concentration that gives 50% inhibition. For orientation: viability, T/C means the ratio of treated to control. For `COc1ncnc(C2CC2)c1-c1ncc2cnn(Cc3ccc(-c4nc(C(F)(F)F)cn4C(C)C)cc3)c2n1` + CN(C)c1ccc(Nc2c3ccc(NC(=O)CCN4CCCC4)cc3nc3cc(NC(=O)CCN4CCCC4)ccc23)cc1, the half-inhibitory concentration (IC50) is over 10 µM under setting [1]; over 10 µM under setting [2]; over 10 µM under setting [3]; over 10 µM under setting [4]; over 10 µM under setting [5]; over 10 µM under setting [6]. The viability, T/C runs as follows: under setting [7], 92.6%; under setting [8], 78.1%; under setting [9], 106%; under setting [10], 98.3%; under setting [11], 101%; under setting [12], 88%. Moreover, the viability, T/C under setting [13] was 102%; the viability, T/C under setting [14] is 97.3%; the viability, T/C under setting [15] is 114%; the viability, T/C under setting [16] was 96.3%; the viability, T/C under setting [17] was 97.4%; the viability, T/C under setting [18] was 121%. Moreover, the viability, T/C was 101% under setting [19]; 103% under setting [20]; 92.2% under setting [21]; 99.4% under setting [22]; 101% under setting [23]; 117% under setting [24]. In addition, the viability, T/C by setting is: under setting [25], 117%; under setting [26], 77%; under setting [27], 98.6%; under setting [28], 98.6%; under setting [29], 99.8%; under setting [30], 107%. Also, the viability, T/C was 86.9% under setting [31]; 99.8% under setting [32]; 86.5% under setting [33]; 105% under setting [34]; 113% under setting [35]; 104% under setting [36]. The viability, T/C is 93.3% under setting [37]; 110% under setting [38]; 96.2% under setting [39]; 79.4% under setting [40]; 89.5% under setting [41]; 93.7% under setting [42].
Take `CCc1c2c(nc3ccc(O)cc13)-c1cc3c(c(=O)n1C2)COC(=O)[C@]3(O)CC`: the viability, T/C was 94.3% and 102% and 120% (compound 0.000999 µM); 83.9% and 104% and 97.4% (compound 0.00316 µM); 87.7% and 72.2% and 92.2% (compound 0.00999 µM); 64.8% and 104% and 70.9% (compound 0.0316 µM); 80% and 86.2% and 77.4% (compound 0.0999 µM); 89.8% and 84.2% and 73.6% (compound 0.316 µM). Moreover, the IC50 (curve of compound) is over 0.316 µM.
For `COc1ncnc(C2CC2)c1-c1ncc2cnn(Cc3ccc(-c4nc(C(F)(F)F)cn4C(C)C)cc3)c2n1`, the viability, T/C reads like this: (compound 0.0316 µM) 105% and 110% and 90.2%; (compound 0.1 µM) 115% and 110% and 86.3%; (compound 0.316 µM) 95.2% and 96.1% and 84.1%; (compound 1 µM) 102% (2×) and 85%; (compound 3.16 µM) 107% and 93.2% and 89.6%; (compound 10 µM) 82.6% and 87.6% and 91.8%. In addition, the IC50 (curve of compound) was over 10 µM.
In the case of `CC1COCCN1c1cc(-c2ccnn2C)c2ccnc(-c3ccn[nH]3)c2n1` (stereo unspecified), the viability, T/C was 91.4% and 103% and 81.2% (compound 0.0316 µM); 51.7% and 66.5% and 56.5% (compound 0.1 µM); 36.6% and 36.5% and 32.7% (compound 0.316 µM); 17.9% and 19.7% and 18.7% (compound 1 µM); 22.7% and 13.6% and 13.7% (compound 3.16 µM); 11.9% and 15.1% and 13.6% (compound 10 µM). The IC50 (curve of compound) was 0.122 µM and 0.186 µM and 0.137 µM.
For `COc1ccc([C@@H](O)c2cc(-c3ncnc4cc(N5CCOCC5)ccc34)c(F)cc2Cl)nn1` + Cc1[nH]c2ccc(F)cc2c1-c1nc2c3cccnc3c3ncccc3c2[nH]1, the IC50 under setting [1] was over 10 µM; the IC50 under setting [2] is over 10 µM; the IC50 under setting [3] turned out to be 8.51 µM; the IC50 under setting [4] amounted to 9.05 µM; the IC50 under setting [5] was determined as 8.89 µM; the IC50 under setting [6] came out at 7.15 µM. For the same molecule, the viability, T/C is, setting by setting: under setting [7], 97.4%; under setting [8], 113%; under setting [9], 108%; under setting [10], 84.6%; under setting [11], 83.8%; under setting [12], 57.7%. In addition, the viability, T/C by setting is: under setting [13], 92%; under setting [14], 97.3%; under setting [15], 109%; under setting [16], 86.9%; under setting [17], 77.6%; under setting [18], 51%. Further, the viability, T/C is 82.2% under setting [19]; 108% under setting [20]; 107% under setting [21]; 83.4% under setting [22]; 111% under setting [23]; 42.1% under setting [24]. Further, the viability, T/C is 85.3% under setting [25]; 92.5% under setting [26]; 106% under setting [27]; 98.9% under setting [28]; 75.9% under setting [29]; 47.6% under setting [30]. Also, the viability, T/C by setting is: under setting [31], 96.3%; under setting [32], 120%; under setting [33], 87.8%; under setting [34], 95%; under setting [35], 97.1%; under setting [36], 44.6%. For the same molecule, the viability, T/C reads like this: under setting [37], 121%; under setting [38], 93.3%; under setting [39], 100%; under setting [40], 93.9%; under setting [41], 82.8%; under setting [42], 36.9%.
Take `Cc1cnc(CNC(=O)c2c(=O)c3ccc(N4CCCN(C)CC4)nc3n3c2sc2ccccc23)cn1`: the viability, T/C (compound 0.316 µM) was 100% [middle of 12 runs].
